The source made the active and inactive calls.
Legend:
Protein RecA = biological target: T1, Protein RecA (Mycobacterium tuberculosis, UniProt P9WHJ3); test: Fluorescence Cell-Free Homogeneous Dose Retest to Identify Inhibitors of RecA-Intein Splicing Activity. [Related pubchem assays (depositor defined):AID2097, AID2223, AID489010, AID492950]; format: functional
T1 sequence (P9WHJ3 whole entry): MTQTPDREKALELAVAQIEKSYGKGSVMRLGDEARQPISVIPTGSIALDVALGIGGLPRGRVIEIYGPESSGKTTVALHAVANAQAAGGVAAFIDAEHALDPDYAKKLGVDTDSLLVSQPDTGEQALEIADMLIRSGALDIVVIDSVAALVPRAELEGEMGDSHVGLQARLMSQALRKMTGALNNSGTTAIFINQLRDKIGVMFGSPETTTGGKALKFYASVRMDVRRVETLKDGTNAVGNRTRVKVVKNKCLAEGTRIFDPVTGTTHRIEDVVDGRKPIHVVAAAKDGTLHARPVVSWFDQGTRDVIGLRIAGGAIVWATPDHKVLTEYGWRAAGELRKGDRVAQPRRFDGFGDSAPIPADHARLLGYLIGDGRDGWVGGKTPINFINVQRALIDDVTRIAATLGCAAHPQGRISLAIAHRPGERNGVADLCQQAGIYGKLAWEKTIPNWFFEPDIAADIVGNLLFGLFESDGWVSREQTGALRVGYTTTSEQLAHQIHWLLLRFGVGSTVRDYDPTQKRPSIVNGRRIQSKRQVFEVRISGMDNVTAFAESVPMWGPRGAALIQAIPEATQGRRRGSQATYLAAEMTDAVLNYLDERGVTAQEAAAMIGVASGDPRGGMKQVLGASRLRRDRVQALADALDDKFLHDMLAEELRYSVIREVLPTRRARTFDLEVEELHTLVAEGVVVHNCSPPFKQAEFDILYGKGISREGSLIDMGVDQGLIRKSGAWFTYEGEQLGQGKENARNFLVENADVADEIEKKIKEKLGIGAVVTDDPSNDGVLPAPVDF

[1] = biological target: T2, Replicative DNA helicase DnaB (Mycobacterium tuberculosis, UniProt P9WMR3); test: DnaB intein splicing inhibitors, dose response, biochemical, cell-free fluorescence (AID 449749); format: functional
T2 sequence (P9WMR3 whole entry): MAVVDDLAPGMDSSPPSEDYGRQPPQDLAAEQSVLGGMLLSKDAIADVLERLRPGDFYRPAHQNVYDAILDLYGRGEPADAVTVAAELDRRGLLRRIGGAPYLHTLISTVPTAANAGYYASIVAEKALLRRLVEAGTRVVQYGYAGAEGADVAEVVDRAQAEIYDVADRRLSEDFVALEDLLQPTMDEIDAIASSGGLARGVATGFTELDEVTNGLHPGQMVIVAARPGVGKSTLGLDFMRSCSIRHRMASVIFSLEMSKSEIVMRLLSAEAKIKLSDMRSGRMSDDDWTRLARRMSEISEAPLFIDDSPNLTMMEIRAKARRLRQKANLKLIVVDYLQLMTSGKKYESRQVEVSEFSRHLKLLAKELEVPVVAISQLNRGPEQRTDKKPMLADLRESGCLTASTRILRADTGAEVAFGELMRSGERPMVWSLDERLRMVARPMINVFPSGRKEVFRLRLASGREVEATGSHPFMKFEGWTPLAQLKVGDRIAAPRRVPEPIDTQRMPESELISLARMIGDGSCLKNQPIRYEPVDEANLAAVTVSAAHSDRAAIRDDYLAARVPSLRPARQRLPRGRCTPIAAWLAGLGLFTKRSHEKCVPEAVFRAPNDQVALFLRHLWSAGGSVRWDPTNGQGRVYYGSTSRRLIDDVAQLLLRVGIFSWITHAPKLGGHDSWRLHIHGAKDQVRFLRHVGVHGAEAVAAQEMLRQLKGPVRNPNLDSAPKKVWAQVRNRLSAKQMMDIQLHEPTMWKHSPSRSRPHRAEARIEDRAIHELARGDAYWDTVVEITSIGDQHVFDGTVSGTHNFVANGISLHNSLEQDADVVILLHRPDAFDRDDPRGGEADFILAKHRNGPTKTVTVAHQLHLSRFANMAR

14-3-3 protein gamma = 14-3-3 protein gamma (Homo sapiens, UniProt P61981); test: modulators of 14-3-3 gamma client binding – dose response (AID 711); format: functional
[2] = Luminescence Cell-Based Dose Response to Identify Activators of 5'UTR Stem-Loop Driven Prion Protein mRNA Translation in H4-C Neuroglioblastoma Cells. [Related pubchem assays: 1829 (Project Summary), 1814 (Primary HTS)]; format: functional
[3] = Luminescence Cell-Based Dose Confirmation HTS to Identify Activators of 5'UTR Stem-Loop Driven Alpha-Synuclein mRNA Translation in H4 Neuroglioblastoma Cells. [Related pubchem assays: 1829 (Project Summary), 1814 (Primary HTS)]; format: functional
Streptokinase A = biological target: T3, Streptokinase A (Streptococcus pyogenes serotype M1, UniProt P10520); test: viability-normalized secreted streptokinase activity reduction – plasminogen activation absorbance, OD405, dose response (AID 1914); format: functional, Streptococcus pyogenes M1 GAS;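 note: secreted streptokinase activity via plasminogen activation per viability signal from cell pellet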
T3 sequence (P10520 whole entry): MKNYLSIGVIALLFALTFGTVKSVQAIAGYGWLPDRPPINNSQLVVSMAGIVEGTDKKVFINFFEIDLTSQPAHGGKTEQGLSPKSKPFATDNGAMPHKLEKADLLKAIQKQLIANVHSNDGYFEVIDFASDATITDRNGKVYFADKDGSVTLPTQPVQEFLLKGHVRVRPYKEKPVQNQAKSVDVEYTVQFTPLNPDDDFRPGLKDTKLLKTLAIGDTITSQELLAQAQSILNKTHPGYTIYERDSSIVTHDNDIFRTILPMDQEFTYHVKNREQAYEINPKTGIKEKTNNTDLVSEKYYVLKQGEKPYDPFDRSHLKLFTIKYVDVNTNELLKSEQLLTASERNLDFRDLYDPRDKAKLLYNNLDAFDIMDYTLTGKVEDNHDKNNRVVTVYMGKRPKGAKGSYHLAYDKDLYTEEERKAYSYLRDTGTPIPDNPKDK

[4] = Luminescence Cell-Based Dose Response to Identify Activators of Luciferase Translation or Activity in H4-C Neuroglioblastoma Cells. [Related pubchem assays: 1829 (Project Summary), 1814 (Primary HTS)]; format: functional
H4 = test: Luminescence Cell-Based Dose Response HTS to Identify Activators of 5'UTR Stem-Loop Driven Prion Protein mRNA Translation in H4 Neuroglioblastoma Cells. [Related pubchem assays: 1829 (Project Summary), 1814 (Primary HTS)]; format: functional; conditions: Homo sapiens
[5] = tested on: Streptococcus sp. 'group A'; test: Streptococcus pyogenes SK(-)GAS viability under kanamycin – luminescence, BacTiterGlo, confirmation, counter-screen for streptokinase expression inhibitor project, dose response (AID 1900); format: functional, organism-based
[6] = Luminescence Cell-Based Dose Confirmation to Identify Activators of 5'UTR Stem-Loop Driven Alpha-Synuclein mRNA Translation in H4 Neuroglioblastoma Cells. [Related pubchem assays: 1829 (Project Summary), 1814 (Primary HTS)]; format: functional
Streptococcus = test: GAS UMAA2166 growth inhibition – luminescence, BacTiterGlo, counter-screen for streptokinase expression inhibitor project, dose response (AID 1915); format: functional, organism-based;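 note: potency for reduction of bacterial viability or growth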
Cytochrome P450 2C19 = Cytochrome P450 2C19 (Homo sapiens, UniProt P33261); test: Cytochrome panel assay with activity outcomes. Panel member name: p450-cyp2c19 Compounds with AC50 equal or less than 10 uM are considered active; format: functional; conditions: read-out: AC50
Cytochrome P450 2C9 [7] = biological target: T4, Cytochrome P450 2C9 (Homo sapiens, UniProt P11712)
Cytochrome P450 2C9 [8] = biological target: T4, Cytochrome P450 2C9; conditions: Potency
Danio rerio = test: In Vivo Angiogenesis Dose-Response Confirmation. [Related pubchem assays: 732 (Assay preceding this confirmatory assay.)]; format: functional, organism-based
[9] = Luminescence Cell-Based Dose Confirmation HTS to Identify Inhibitors of Polyadenylation.; format: functional
Vero [10] = test: mammalian cell viability reduction – secondary assay, cytotoxicity control for West Nile virus antiviral project, dose response (AID 1650); format: functional; conditions: Chlorocebus sabaeus
[11] = luciferase reporter signal suppression in cells – H4 neuroglioma cells, luminescence, dose response (AID 1990); format: functional, cell-based
Cytochrome P450 1A2 = biological target: T5, Cytochrome P450 1A2 (Homo sapiens, UniProt P05177);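 note: PubChem cytochrome P450 panel assay, CYP1A2 panel member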
T5 sequence (P05177 whole entry): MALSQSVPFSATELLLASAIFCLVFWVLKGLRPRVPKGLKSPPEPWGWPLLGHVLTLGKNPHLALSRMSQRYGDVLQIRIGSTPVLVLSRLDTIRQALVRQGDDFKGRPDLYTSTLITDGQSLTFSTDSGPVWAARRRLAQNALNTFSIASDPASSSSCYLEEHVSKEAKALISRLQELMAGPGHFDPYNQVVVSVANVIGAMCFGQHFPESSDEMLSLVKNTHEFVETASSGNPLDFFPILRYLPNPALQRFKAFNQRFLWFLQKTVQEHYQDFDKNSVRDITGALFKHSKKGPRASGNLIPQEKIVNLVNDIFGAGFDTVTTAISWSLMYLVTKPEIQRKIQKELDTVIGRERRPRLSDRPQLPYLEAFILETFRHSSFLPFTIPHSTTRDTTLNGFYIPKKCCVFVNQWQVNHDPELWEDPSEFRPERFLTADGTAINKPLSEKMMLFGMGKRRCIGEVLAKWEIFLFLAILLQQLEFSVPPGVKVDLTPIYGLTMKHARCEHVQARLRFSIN

[12] = NIH3T3 cell viability loss – ATP luminescence, mouse fibroblasts, counter-screen, dose response (AID 2010); format: functional, cell-based;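 note: cells exposed to compound for about 90 hours before reading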
Vero [13] = test: cells; format: functional; conditions: Chlorocebus sabaeus
[14] = alpha-synuclein stem-loop luciferase translation blockers – H4 neuroglioma cells, luminescence, confirmation (AID 1988); format: functional, cell-based
[15] = Trypanosoma cruzi growth suppression in host cells – NIH3T3 host cells, beta-gal luminescence, confirmation (AID 2044); format: functional, cell-based;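 note: intracellular parasites grown in NIH/3T3 mouse fibroblasts as host cells; luminescent beta-galactosidase reporter signal from transgenic T. cruzi replicating inside host cells; inhibitors lower the luminescence signal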
Vero [16] = test: cells; format: functional, cell-based; conditions: Chlorocebus sabaeus
[17] = Luminescence Cell-Based Dose Response HTS to Identify Inhibitors of 5'UTR Stem-Loop Driven Prion Protein mRNA Translation in H4 Neuroglioblastoma Cells. [Related pubchem assays: 1827 (Project Summary), 1813 (Primary HTS)]; format: functional
Bcl-2-related protein A1 [18] = biological target: T6, Bcl-2-related protein A1 (Mus musculus, UniProt Q07440); test: Bfl-1 binding inhibitors, SAR follow-up, biochemical, fluorescence polarization (AID 1070)
T6 sequence (Q07440 whole entry): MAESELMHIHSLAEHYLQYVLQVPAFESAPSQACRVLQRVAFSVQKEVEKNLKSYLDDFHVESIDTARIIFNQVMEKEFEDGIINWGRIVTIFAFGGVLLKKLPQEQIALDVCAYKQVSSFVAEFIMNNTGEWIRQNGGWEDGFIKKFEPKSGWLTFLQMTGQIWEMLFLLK

[19] = biological target: Glyceraldehyde-3-phosphate dehydrogenase (Homo sapiens, UniProt P04406)
Bcl-2-related protein A1 [20] = biological target: T6, Bcl-2-related protein A1; test: small-molecule antagonists of Bfl-1/BH3 interaction – biochemical, TR-FRET, mouse Bfl-1, confirmation (AID 621);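 note: TR-FRET binding of GST-Bfl-1 to FITC-labelled Bid peptide via terbium antibody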
[21] = biological target: Sphingosine 1-phosphate receptor 2 (Homo sapiens, UniProt O95136); test: Dose Response Cell Based Assay for Agonists of the S1P2 Receptor of Purchased Analogues. [Related pubchem assays: 729, 843, 854, 736 ]; format: functional
[22] = biological target: Voltage-gated inwardly rectifying potassium channel KCNH2 (Homo sapiens, UniProt Q12809); test: concentration-dependent hERG rescue from blockers – cell-based, thallium flux, dose response (AID 2121); format: ADME
[23] = biological target: Potassium voltage-gated channel subfamily KQT member 2 (Rattus norvegicus, UniProt O88943, W236L); test: potentiation of rat KCNQ2 current – cell-based, automated electrophysiology, mechanism study for KCNQ2 potentiator project, dose response (AID 2603); format: functional
Chain of Potassium voltage-gated channel subfamily KQT member 2 (O88943 whole entry W236L): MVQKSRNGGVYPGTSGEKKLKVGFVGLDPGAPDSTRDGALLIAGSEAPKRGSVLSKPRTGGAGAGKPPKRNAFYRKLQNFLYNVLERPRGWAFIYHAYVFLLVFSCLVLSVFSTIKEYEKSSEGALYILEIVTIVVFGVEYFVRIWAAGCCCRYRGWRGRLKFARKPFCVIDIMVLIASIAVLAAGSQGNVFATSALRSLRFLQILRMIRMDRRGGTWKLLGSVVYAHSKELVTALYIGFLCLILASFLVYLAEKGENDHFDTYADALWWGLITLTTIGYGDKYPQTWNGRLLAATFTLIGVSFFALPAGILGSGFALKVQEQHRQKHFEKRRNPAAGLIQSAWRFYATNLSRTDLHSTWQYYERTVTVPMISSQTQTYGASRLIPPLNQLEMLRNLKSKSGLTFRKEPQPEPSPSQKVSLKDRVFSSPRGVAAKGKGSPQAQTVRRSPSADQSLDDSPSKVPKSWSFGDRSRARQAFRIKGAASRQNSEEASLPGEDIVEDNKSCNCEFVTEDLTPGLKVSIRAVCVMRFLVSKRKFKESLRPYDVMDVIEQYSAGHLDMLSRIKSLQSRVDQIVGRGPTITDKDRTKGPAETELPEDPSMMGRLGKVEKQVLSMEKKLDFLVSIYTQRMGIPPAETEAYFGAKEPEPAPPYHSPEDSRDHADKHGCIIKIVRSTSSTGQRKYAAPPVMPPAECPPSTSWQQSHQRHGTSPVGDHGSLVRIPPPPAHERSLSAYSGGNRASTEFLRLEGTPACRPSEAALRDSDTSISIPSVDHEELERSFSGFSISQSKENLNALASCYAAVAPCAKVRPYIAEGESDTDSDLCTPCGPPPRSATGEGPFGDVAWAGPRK

T4 sequence (P11712 whole entry): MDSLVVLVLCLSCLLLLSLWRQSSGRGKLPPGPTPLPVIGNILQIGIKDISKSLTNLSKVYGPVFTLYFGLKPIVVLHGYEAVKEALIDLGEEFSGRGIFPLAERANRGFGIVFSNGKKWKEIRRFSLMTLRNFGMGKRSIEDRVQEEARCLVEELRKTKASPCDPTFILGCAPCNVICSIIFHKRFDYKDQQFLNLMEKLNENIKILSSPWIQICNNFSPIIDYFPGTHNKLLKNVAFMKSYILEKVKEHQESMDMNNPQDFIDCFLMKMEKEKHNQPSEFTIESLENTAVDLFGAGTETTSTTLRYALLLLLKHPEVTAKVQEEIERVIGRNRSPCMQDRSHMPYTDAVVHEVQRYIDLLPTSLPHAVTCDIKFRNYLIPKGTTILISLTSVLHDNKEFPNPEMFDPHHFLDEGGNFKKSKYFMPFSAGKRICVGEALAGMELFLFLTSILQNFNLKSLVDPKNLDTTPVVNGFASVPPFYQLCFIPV
Chain of Sphingosine 1-phosphate receptor 2 (O95136 whole entry): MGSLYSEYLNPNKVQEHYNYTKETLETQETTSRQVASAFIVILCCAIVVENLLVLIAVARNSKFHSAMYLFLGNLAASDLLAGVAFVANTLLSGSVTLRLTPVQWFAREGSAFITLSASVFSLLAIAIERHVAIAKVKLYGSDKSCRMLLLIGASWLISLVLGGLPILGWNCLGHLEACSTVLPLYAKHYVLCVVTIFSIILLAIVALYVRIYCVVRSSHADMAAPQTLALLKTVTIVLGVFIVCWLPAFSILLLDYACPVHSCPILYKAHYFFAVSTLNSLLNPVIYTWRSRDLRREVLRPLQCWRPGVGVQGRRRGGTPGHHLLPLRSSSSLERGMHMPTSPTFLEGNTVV
Chain of Voltage-gated inwardly rectifying potassium channel KCNH2 (Q12809 whole entry): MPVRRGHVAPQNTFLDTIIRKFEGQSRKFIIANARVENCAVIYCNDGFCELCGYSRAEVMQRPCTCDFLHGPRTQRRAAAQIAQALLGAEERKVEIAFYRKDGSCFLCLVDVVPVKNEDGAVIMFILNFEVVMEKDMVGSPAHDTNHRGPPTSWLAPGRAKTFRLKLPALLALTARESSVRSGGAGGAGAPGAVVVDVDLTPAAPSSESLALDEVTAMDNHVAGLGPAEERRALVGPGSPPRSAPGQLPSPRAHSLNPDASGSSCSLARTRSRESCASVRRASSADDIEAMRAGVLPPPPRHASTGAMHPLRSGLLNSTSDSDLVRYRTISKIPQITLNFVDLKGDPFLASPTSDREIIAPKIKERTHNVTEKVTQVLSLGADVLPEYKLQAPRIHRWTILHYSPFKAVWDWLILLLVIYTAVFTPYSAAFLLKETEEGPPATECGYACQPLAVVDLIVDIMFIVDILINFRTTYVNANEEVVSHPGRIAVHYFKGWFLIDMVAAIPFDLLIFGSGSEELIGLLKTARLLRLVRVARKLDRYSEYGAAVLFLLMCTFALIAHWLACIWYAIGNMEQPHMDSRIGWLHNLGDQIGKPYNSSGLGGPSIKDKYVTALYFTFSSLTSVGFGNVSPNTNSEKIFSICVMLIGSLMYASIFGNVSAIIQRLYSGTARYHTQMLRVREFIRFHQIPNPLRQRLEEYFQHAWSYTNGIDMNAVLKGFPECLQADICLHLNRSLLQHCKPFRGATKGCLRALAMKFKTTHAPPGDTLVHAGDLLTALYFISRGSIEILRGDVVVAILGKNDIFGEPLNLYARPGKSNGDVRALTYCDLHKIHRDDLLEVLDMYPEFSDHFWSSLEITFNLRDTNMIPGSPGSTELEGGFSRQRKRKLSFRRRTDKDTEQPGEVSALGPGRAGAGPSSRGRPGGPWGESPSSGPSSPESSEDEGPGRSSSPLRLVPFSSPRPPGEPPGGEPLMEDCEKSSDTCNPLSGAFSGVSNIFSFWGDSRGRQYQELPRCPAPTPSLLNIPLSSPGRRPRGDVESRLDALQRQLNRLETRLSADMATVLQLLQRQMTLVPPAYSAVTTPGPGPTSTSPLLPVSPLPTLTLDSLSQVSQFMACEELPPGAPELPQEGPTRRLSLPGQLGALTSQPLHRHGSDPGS
Chain of 14-3-3 protein gamma (P61981 whole entry): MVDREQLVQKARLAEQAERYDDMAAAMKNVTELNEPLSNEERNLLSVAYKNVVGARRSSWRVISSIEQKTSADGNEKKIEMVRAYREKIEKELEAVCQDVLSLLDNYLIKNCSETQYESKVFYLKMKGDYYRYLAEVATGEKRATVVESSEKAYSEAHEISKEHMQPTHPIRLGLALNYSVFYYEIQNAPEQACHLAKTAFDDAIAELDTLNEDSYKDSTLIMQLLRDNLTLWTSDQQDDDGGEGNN
Chain of Cytochrome P450 2C19 (P33261 whole entry): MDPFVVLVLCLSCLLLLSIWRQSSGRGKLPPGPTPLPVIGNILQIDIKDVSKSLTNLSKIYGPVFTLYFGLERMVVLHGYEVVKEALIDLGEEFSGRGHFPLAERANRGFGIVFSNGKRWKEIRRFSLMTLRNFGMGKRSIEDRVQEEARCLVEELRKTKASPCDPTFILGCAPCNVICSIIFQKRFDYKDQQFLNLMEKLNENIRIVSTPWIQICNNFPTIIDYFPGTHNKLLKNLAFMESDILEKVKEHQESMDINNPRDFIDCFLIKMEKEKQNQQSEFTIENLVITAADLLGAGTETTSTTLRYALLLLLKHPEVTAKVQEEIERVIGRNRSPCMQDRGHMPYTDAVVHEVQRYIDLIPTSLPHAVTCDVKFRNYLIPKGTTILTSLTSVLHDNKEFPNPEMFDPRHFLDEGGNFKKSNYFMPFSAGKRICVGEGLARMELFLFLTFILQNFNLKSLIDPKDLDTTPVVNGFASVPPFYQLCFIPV
Chain of Glyceraldehyde-3-phosphate dehydrogenase (P04406 whole entry): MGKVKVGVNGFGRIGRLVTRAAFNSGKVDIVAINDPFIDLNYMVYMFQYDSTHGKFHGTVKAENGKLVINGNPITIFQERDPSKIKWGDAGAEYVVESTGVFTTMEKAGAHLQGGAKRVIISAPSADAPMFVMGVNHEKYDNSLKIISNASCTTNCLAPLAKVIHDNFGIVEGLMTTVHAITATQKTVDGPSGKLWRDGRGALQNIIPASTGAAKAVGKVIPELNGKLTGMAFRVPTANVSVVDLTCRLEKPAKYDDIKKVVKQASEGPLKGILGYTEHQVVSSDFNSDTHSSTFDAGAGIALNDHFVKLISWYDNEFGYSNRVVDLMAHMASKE

## NC(=O)c1c(-c2cccs2)csc1N
Protein RecA
  EC50: 1.02 µM (active)
[1]
  AC50: > 380 µM (inactive)
14-3-3 protein gamma
  IC50: > 50 µM (not active)

## Cc1ccc(Nc2nc3ccccc3[nH]2)nc1
[2]
  EC50: 279 nM (active)
[3]
  EC50: < 100 nM (active)
Streptokinase A
  EC50: > 150 µM (not active)
[4]
  EC50: 368 nM (active)
H4
  EC50: 43.1 µM (active)
[5]
  EC50: 5.49 µM (active)
[6]
  EC50: 601 nM (active)
Streptococcus
  EC50: > 150 µM (not active)

## O=Nc1c(-c2c(O)[nH]c3ccccc23)[nH]c2ccccc12 [INDIRUBIN-3-MONOXIME]
Cytochrome P450 2C19
  AC50: 39.8 µM (inconclusive)
Cytochrome P450 2C9 [7]
  AC50: 39.8 µM (inconclusive)
Cytochrome P450 2C9 [8]
  AC50: 12.6 µM (inconclusive)
Danio rerio
  IC50: 310 nM (active)

## CC(C)CC1Nc2ncnc(N3CCN(c4ccccc4)CC3)c2N(Cc2ccccc2)C1=O (stereo unspecified)
[9]
  EC50: > 120 µM (not active)

## COc1c(C)c2c(c(O)c1C/C=C(\C)CCC(=O)O)C(=O)OC2 [MYCOPHENOLIC ACID]
Vero [10]
  CC50: 4.61 µM (active)
[11]
  EC50: 10.2 µM (active)
Cytochrome P450 1A2
  AC50: 15.8 µM (inconclusive)
[12]
  EC50: 10.9 µM (active)
Vero [13]
  CC50: 9.68 µM (active)
[14]
  EC50: 8.2 µM (active)
[15]
  EC50: 1.64 µM (active)
Vero [16]
  IC50: < 50 nM (active)
[17]
  EC50: 116 nM (active)

## CS(=O)(=O)c1nc(-c2ccc3ccccc3c2)cc(C(F)(F)F)n1
Bcl-2-related protein A1 [18]
  IC50: > 100 µM (not active)
[19]
  IC50: > 100 µM (not active)
Bcl-2-related protein A1 [20]
  IC50: > 100 µM (not active)

## Cc1cc(C(=O)CN(C)CC(=O)N2CCOCC2)c(C)n1Cc1ccccc1
[21]
  EC50: > 30 µM (not active)

## C/C(Nc1cccc(F)c1)=C(/C#N)C(N)=O
[22]
  EC50: 880 nM (active)

## O=C(Nc1ccc(Oc2ccc3ccccc3c2)cc1)c1ccco1
[23]
  EC50: 12 µM (active)
